Measured values taken from patent publication US20040052836A1, “Pharmaceutical compositions containing at least one stable liposphere having an improved shelf life” (priority 2002, published 2004).
Counter-ions that a name gives are not always drawn.

Assays:
rats = assay: Rat thermal paw flick anesthesia study; type: in vivo; conditions: intraplantar injection 100 μL
Procedure: Liposphere containing bupivacaine (3%), tristearin (6%), and DMPC (0.75%) was tested for its local anesthetic activity in rats. Its activity was compared with that of bupivacaine HCL (3%) solution. The liposphere formulation was prepared as described in Example 1. Adult rats were given an intraplantar injection of 100 μL of either liposphere formulation or bupivacaine HCl solution. Animals were then individually placed into a Hargreaves “hotbox,” in which a beam of light, as a heat source, was focused on the plantar surface of the injected paw at various intervals after treatment. The latency for the rat to withdraw its paw was recorded, up to a maximum of 20 seconds. The earliest time point examined in these studies was 30 min. The latest time point was 120 min for animals treated with bupivacaine HCl solution (by which time latencies had returned to predrug baseline levels), and 1440 min for animals treated with liposphere formulation.

guinea pigs = assay: Guinea pig wheal anesthesia study (pin-prick); type: in vivo; conditions: subcutaneous 300 μL; 3% liposphere (p<0.043) or 0.5% bupivacaine HCl solution (p<0.008); 1-tailed test; FIG. 3
Procedure: Liposphere formulation containing bupivacaine (3%), tristearin (6%), and DMPC (0.75%) and the liposphere vehicle containing tristearin (6%) and DMPC (0.75%) were evaluated for their anesthesia activities in guinea pigs. The liposphere formulation and vehicle were prepared as described in Example 1. In addition, a solution of bupivacaine HCl (0.5%) and its vehicle (normal saline solution) were evaluated for comparison. In this example, adult guinea pigs were randomly assigned to one of two groups, with each group receiving two subcutaneous injections: one of vehicle and one of the test articles. Half of the animals in each group were given the vehicle on the left side and the test article on the right side. The other half were given the test article on the left side and the vehicle on the right. Injection volume was 300 μL. There were two injections given to each animal. Both groups consisted of eight animals, four of each group received an injection of the vehicle on the left side of the spine, and the remaining four animals received an injection of the vehicle on the right side. […] The “anesthetic action” (the ability of local anesthetics to block the skin reflex in guinea pigs) was determined using the “pin-prick” method. […] The ability of the test compound to block the twitch responses of the guinea pig to six probings with a carefully calibrated needle algesimeter was evaluated. […]

## CCCCN1CCCCC1C(=O)Nc1c(C)cccc1C (stereo not drawn) [bupivacaine HCl solution, bupivacaine HCl]
rats; 3% bupivacaine liposphere or 3% bupivacaine HCl solution, paw withdrawal latency, FIG. 2
  duration of anesthesia post injection: up to 60 min
rats; bupivacaine HCl 3% solution
  time by which latencies had returned to predrug baseline levels: ≤ 120 min
Guinea pigs
  duration of statistically significant anesthesia compared to vehicle: up to 0.75 hours
